Data published in PubChem BioAssay AID1845209 (Molecular Pharmacology Branch, DTP, NCI, 2023).
“And” between values parts separate entries of the source, which are not always exact repeats. Identical values can stand only once.

Test system: NCI-H211 tumor spheroids, viability percent test/control
Assay: Anticancer human tumor NCI-H211 cell line growth inhibition;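 also: spheroids exposed to agents for seven days before readout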
Settings: spheroids with HUVEC and MSC; for viability, T/C: stronger effect = lower value
In short: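 Complex spheroids of malignant cells with endothelial cells and mesenchymal stem cells; agents alone or combined, from near clinical Cmax (or 10 microM if unknown) down in half-log steps, 0.25% DMSO final.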

[1] = curve of first compound, second compound 0.003 µM
[2] = second compound 0.003 µM, first compound 0.0316 µM
[3] = second compound 0.003 µM, first compound 0.1 µM
[4] = second compound 0.003 µM, first compound 0.316 µM
[5] = second compound 0.003 µM, first compound 1 µM
[6] = second compound 0.003 µM, first compound 3.16 µM
[7] = second compound 0.003 µM, first compound 10 µM

## COc1ccc([C@@H](O)c2cc(-c3ncnc4cc(N5CCOCC5)ccc34)c(F)cc2Cl)nn1 + CC[C@@]1(O)C(=O)OCc2c1cc1n(c2=O)Cc2cc3c(CN(C)C)c(O)ccc3nc2-1
[1]
  IC50: 3600 nM
Curve of first compound, second compound 0.00949 µM
  IC50: < 31.6 nM
Curve of first compound, second compound 0.03 µM
  IC50: < 31.6 nM
Curve of first compound, second compound 0.0949 µM
  IC50: < 31.6 nM
Curve of first compound, second compound 0.3 µM
  IC50: < 31.6 nM
[2]
  viability, T/C: 112%
[3]
  viability, T/C: 109%
[4]
  viability, T/C: 109%
[5]
  viability, T/C: 80.8%
[6]
  viability, T/C: 57.8%
[7]
  viability, T/C: 5.72%
Second compound 0.00949 µM, first compound 0.0316 µM
  viability, T/C: 18.5%
Second compound 0.00949 µM, first compound 0.1 µM
  viability, T/C: 19%
Second compound 0.00949 µM, first compound 0.316 µM
  viability, T/C: 34.5%
Second compound 0.00949 µM, first compound 1 µM
  viability, T/C: 10.9%
Second compound 0.00949 µM, first compound 3.16 µM
  viability, T/C: 4.32%
Second compound 0.00949 µM, first compound 10 µM
  viability, T/C: 1.55%
Second compound 0.03 µM, first compound 0.0316 µM
  viability, T/C: 0.99%
Second compound 0.03 µM, first compound 0.1 µM
  viability, T/C: 1.23%
Second compound 0.03 µM, first compound 0.316 µM
  viability, T/C: 0.9%
Second compound 0.03 µM, first compound 1 µM
  viability, T/C: 0.66%
Second compound 0.03 µM, first compound 3.16 µM
  viability, T/C: 0.4%
Second compound 0.03 µM, first compound 10 µM
  viability, T/C: 0.33%
Second compound 0.0949 µM, first compound 0.0316 µM
  viability, T/C: 0.86%
Second compound 0.0949 µM, first compound 0.1 µM
  viability, T/C: 0.83%
Second compound 0.0949 µM, first compound 0.316 µM
  viability, T/C: 0.77%
Second compound 0.0949 µM, first compound 1 µM
  viability, T/C: 1.43%
Second compound 0.0949 µM, first compound 3.16 µM
  viability, T/C: 0.37%
Second compound 0.0949 µM, first compound 10 µM
  viability, T/C: 0.32%
Second compound 0.3 µM, first compound 0.0316 µM
  viability, T/C: 0.92%
Second compound 0.3 µM, first compound 0.1 µM
  viability, T/C: 1.06%
Second compound 0.3 µM, first compound 0.316 µM
  viability, T/C: 0.96%
Second compound 0.3 µM, first compound 1 µM
  viability, T/C: 0.94%
Second compound 0.3 µM, first compound 3.16 µM
  viability, T/C: 1.01%
Second compound 0.3 µM, first compound 10 µM
  viability, T/C: 0.26%

## Cc1cc(C)c(CNC(=O)c2cc(-c3ccc(CN4CCOCC4)cc3)cc3c2cnn3C2CCCC2)c(=O)[nH]1
Compound 0.0316 µM
  viability, T/C: 106% and 79.2% and 96.2%
Compound 0.1 µM
  viability, T/C: 102% (2×) and 89.3%
Compound 0.316 µM
  viability, T/C: 102% and 95.7% and 100%
Compound 1 µM
  viability, T/C: 96.7% and 87.9% and 102%
Compound 3.16 µM
  viability, T/C: 91.7% and 82.2% and 104%
Compound 10 µM
  viability, T/C: 52% and 33.5% and 63.2%
Curve of compound
  IC50: > 10000 nM and 6780 nM

## CC1COCCN1c1cc(-c2ccnn2C)c2ccnc(-c3ccn[nH]3)c2n1 (stereo not drawn)
Compound 0.1 µM
  viability, T/C: 0.66% and 1.94% and 4.83%
Compound 0.316 µM
  viability, T/C: 0.63% and 0.89% and 0.78%
Compound 1 µM
  viability, T/C: 0.57% and 0.81% and 0.58%
Compound 3.16 µM
  viability, T/C: 0.43% and 0.84% and 0.58%
Compound 10 µM
  viability, T/C: 0.61% and 1.42% and 0.85%
Curve of compound
  IC50: < 31.6 nM

## CC(C)n1c(=O)n(C)c2cnc3cc(F)c(-c4ccc(OCCCN5CCCCC5)nc4)cc3c21 + COc1cc2c(cc1O)CCNC21CSC2c3c(OC(C)=O)c(C)c4c(c3C(COC1=O)N1C(O)C3Cc5cc(C)c(OC)c(O)c5C(C21)N3C)OCO4
Curve of first compound, second compound 30 pM
  IC50: < 31.6 nM
Curve of first compound, second compound 94.9 pM
  IC50: < 31.6 nM
Curve of first compound, second compound 0.0003 µM
  IC50: < 31.6 nM
Curve of first compound, second compound 0.000949 µM
  IC50: < 31.6 nM
[1]
  IC50: < 31.6 nM
Second compound 30 pM, first compound 0.0316 µM
  viability, T/C: 27%
Second compound 30 pM, first compound 0.1 µM
  viability, T/C: 15.3%
Second compound 30 pM, first compound 0.316 µM
  viability, T/C: 15.5%
Second compound 30 pM, first compound 1 µM
  viability, T/C: 12.7%
Second compound 30 pM, first compound 3.16 µM
  viability, T/C: 9.25%
Second compound 30 pM, first compound 10 µM
  viability, T/C: 0.77%
Second compound 94.9 pM, first compound 0.0316 µM
  viability, T/C: 0.99%
Second compound 94.9 pM, first compound 0.1 µM
  viability, T/C: 0.88%
Second compound 94.9 pM, first compound 0.316 µM
  viability, T/C: 1.06%
Second compound 94.9 pM, first compound 1 µM
  viability, T/C: 0.96%
Second compound 94.9 pM, first compound 3.16 µM
  viability, T/C: 0.8%
Second compound 94.9 pM, first compound 10 µM
  viability, T/C: 0.42%
Second compound 0.0003 µM, first compound 0.0316 µM
  viability, T/C: 0.68%
Second compound 0.0003 µM, first compound 0.1 µM
  viability, T/C: 0.74%
Second compound 0.0003 µM, first compound 0.316 µM
  viability, T/C: 0.77%
Second compound 0.0003 µM, first compound 1 µM
  viability, T/C: 1.03%
Second compound 0.0003 µM, first compound 3.16 µM
  viability, T/C: 0.82%
Second compound 0.0003 µM, first compound 10 µM
  viability, T/C: 0.31%
Second compound 0.000949 µM, first compound 0.0316 µM
  viability, T/C: 0.69%
Second compound 0.000949 µM, first compound 0.1 µM
  viability, T/C: 0.69%
Second compound 0.000949 µM, first compound 0.316 µM
  viability, T/C: 0.71%
Second compound 0.000949 µM, first compound 1 µM
  viability, T/C: 0.72%
Second compound 0.000949 µM, first compound 3.16 µM
  viability, T/C: 0.7%
Second compound 0.000949 µM, first compound 10 µM
  viability, T/C: 0.5%
[2]
  viability, T/C: 0.12%
[3]
  viability, T/C: 0.17%
[4]
  viability, T/C: 0.11%
[5]
  viability, T/C: 0.1%
[6]
  viability, T/C: 0.12%
[7]
  viability, T/C: 0.16%
